Test results as given in US20100298141A1, “SUBSTITUTED PYRIDINE N-OXIDE HERBICIDES” (E. I. DU PONT DE NEMOURS AND COMPANY, priority 2007, published 2010).

Columns and labels:
Experiment in all cases: Test F preemergence test
broadleaf signalgrass = format: in vivo, Brachiaria platyphylla; settings: scale 0 to 100
Source text: (§1) Seeds of plant species selected from bermudagrass (Cynodon dactylon), Surinam grass (Brachiaria decumbens), large crabgrass (Digitaria sanguinalis), green foxtail (Setaria viridis), goosegrass (Eleusine indica), johnsongrass (Sorghum halepense), kochia (Kochia scoparia), pitted morningglory (Ipomoea lacunosa), purple nutsedge (Cyperus rotundus), common ragweed (Ambrosia elation), mustard (Brassica nigra), guineagrass (Panicum maximum), […] (Paspalum dilatatum), barnyardgrass (Echinochloa crus-galli), southern sandbur (Cenchrus echinatus), common sowthistle (Sonchus oleraceous), prickly […] spinosa), Italian ryegrass (Lolium multiflorum), common purslane (Portulaca oleracea), broadleaf signalgrass (Brachiaria platyphylla), common groundsel (Senecio vulgaris), common chickweed (Stellaria media), Virginia dayflower (Commelina virginica), annual bluegrass (Poa annua), naked crabgrass (Digitaria nuda), […] cochinchinensis), quackgrass (Elytrigia repens), Canada horseweed (Conyza canadensis), field bindweed (Convolvulus arvensis), […] (Bidens bipinnata), common mallow (Malva sylvestris), Russian thistle (Salsola kali), and sugarcane (Saccharum officinarum) were planted and treated preemergence with test chemicals formulated in a non-phytotoxic solvent mixture which included a surfactant. At a different time, sugarcane was treated with postemergence applications of some of the test chemicals formulated in the same manner. Plants were approximately 3- to 4-leaf stage for the postemergence treatments. Treated plants and controls were maintained in a greenhouse for 14 to 21 days, after which time all species were compared to controls and visually evaluated. […] A dash (-) response means no test result.

johnsongrass = format: in vivo, Sorghum halepense; settings: scale 0 to 100
Source text: as §1

common ragweed = format: in vivo, Ambrosia elation; settings: scale 0 to 100
Source text: as §1

common groundsel = format: in vivo, Senecio vulgaris; settings: scale 0 to 100
Source text: as §1

pitted morningglory = format: in vivo, Ipomoea lacunosa; settings: 16 g ai/ha, preemergence; scale 0 to 100
Source text: as §1

naked crabgrass = format: in vivo, Digitaria nuda; settings: scale 0 to 100
Source text: as §1

barnyardgrass = format: in vivo, Echinochloa crus-galli
Source text: as §1

common purslane = format: in vivo, Portulaca oleracea; settings: scale 0 to 100
Source text: as §1

prickly sida = format: in vivo, Sida spinosa; settings: scale 0 to 100
Source text: as §1

bermudagrass = format: in vivo, Cynodon dactylon; settings: scale 0 to 100
Source text: as §1

kochia = format: in vivo, Kochia scoparia; settings: scale 0 to 100; for Plant response rating, Kochia: Preemergence
Source text: as §1

itchgrass = format: in vivo, Rottboellia cochinchinensis; settings: scale 0 to 100
Source text: as §1

large crabgrass = format: in vivo, Digitaria sanguinalis; settings: scale 0 to 100
Source text: as §1

quackgrass = format: in vivo, Elytrigia repens; settings: scale 0 to 100
Source text: as §1

Surinam grass = format: in vivo, Brachiaria decumbens; settings: scale 0 to 100
Source text: as §1

guineagrass = format: in vivo, Panicum maximum; settings: scale 0 to 100
Source text: as §1

mustard = format: in vivo, Brassica nigra; settings: scale 0 to 100
Source text: as §1

dallisgrass = format: in vivo, Paspalum dilatatum; settings: scale 0 to 100
Source text: as §1

Italian ryegrass = format: in vivo, Lolium multiflorum; settings: scale 0 to 100
Source text: as §1

goosegrass = format: in vivo, Eleusine indica; settings: scale 0 to 100
Source text: as §1

Cn1nc(C(F)(F)F)c(C[S+]([O-])c2ccc(Cl)c[n+]2[O-])c1OCC(F)F (stereo not shown) [Compound 85]
Plant response rating, Signalgrass (broadleaf signalgrass; 16 g ai/ha, preemergence): 60
Signalgrass plant response rating (broadleaf signalgrass; 125 g ai/ha, preemergence): 80
Plant response rating, Signalgrass (broadleaf signalgrass; Preemergence, 62 g ai/ha): 70
Plant response rating, Signalgrass (broadleaf signalgrass; Preemergence, 31 g ai/ha): 70
Plant response rating, Johnsongrass (johnsongrass; 16 g ai/ha, preemergence): 40
Johnsongrass plant response rating (johnsongrass; 125 g ai/ha, preemergence): 98
Plant response rating, Johnsongrass (johnsongrass; Preemergence, 62 g ai/ha): 90
Plant response rating, Johnsongrass (johnsongrass; Preemergence, 31 g ai/ha): 75
Plant response rating, Ragweed (common ragweed; 16 g ai/ha, preemergence): 0
Ragweed plant response rating (common ragweed; 125 g ai/ha, preemergence): 80
Plant response rating, Ragweed (common ragweed; Preemergence, 62 g ai/ha): 80
Plant response rating, Ragweed (common ragweed; Preemergence, 31 g ai/ha): 20
Plant response rating, Groundsel (common groundsel; 16 g ai/ha, preemergence): 0
Groundsel plant response rating (common groundsel; 125 g ai/ha, preemergence): 65
Plant response rating, Groundsel (common groundsel; Preemergence, 62 g ai/ha): 0
Plant response rating, Groundsel (common groundsel; Preemergence, 31 g ai/ha): 0
Plant response rating, Morningglory (pitted morningglory): 0
Plant response rating, Crabgrass, Naked (naked crabgrass; 16 g ai/ha, preemergence): 75
Crabgrass, Naked plant response rating (naked crabgrass; 125 g ai/ha, preemergence): 95
Plant response rating, Crabgrass, Naked (naked crabgrass; Preemergence, 62 g ai/ha): 90
Plant response rating, Crabgrass, Naked (naked crabgrass; Preemergence, 31 g ai/ha): 80
Plant response rating, Barnyardgrass (barnyardgrass; 16 g ai/ha, preemergence, scale 0 to 100 (0 no effect, 100 complete control)): 50
Barnyardgrass plant response rating (barnyardgrass; 125 g ai/ha, preemergence, scale 0 to 100): 100
Plant response rating, Barnyardgrass (barnyardgrass; Preemergence, 62 g ai/ha, scale 0 to 100): 90
Plant response rating, Barnyardgrass (barnyardgrass; Preemergence, 31 g ai/ha, scale 0 to 100): 80
Plant response rating, Purslane (common purslane; 16 g ai/ha, preemergence): 0
Purslane plant response rating (common purslane; 125 g ai/ha, preemergence): 60
Plant response rating, Purslane (common purslane; Preemergence, 62 g ai/ha): 60
Plant response rating, Purslane (common purslane; Preemergence, 31 g ai/ha): 25
Plant response rating, Prickly Sida (prickly sida; 16 g ai/ha, preemergence): 0
Prickly Sida plant response rating (prickly sida; 125 g ai/ha, preemergence): 60
Plant response rating, Prickly Sida (prickly sida; Preemergence, 62 g ai/ha): 40
Plant response rating, Prickly Sida (prickly sida; Preemergence, 31 g ai/ha): 20
Plant response rating, Bermudagrass (bermudagrass; 16 g ai/ha, preemergence): 20
Bermudagrass plant response rating (bermudagrass; 125 g ai/ha, preemergence): 95
Plant response rating, Bermudagrass (bermudagrass; Preemergence, 62 g ai/ha): 80
Plant response rating, Bermudagrass (bermudagrass; Preemergence, 31 g ai/ha): 60
Kochia plant response rating (kochia; 125 g ai/ha, preemergence): 100
Plant response rating, Kochia (kochia; 62 g ai/ha): 100
Plant response rating, Kochia (kochia; 31 g ai/ha): 25
Plant response rating, Itchgrass (itchgrass; 16 g ai/ha, preemergence): 25
Itchgrass plant response rating (itchgrass; 125 g ai/ha, preemergence): 90
Plant response rating, Itchgrass (itchgrass; Preemergence, 62 g ai/ha): 70
Plant response rating, Itchgrass (itchgrass; Preemergence, 31 g ai/ha): 70
Plant response rating, Crabgrass, Large (large crabgrass; 16 g ai/ha, preemergence): 60
Crabgrass, Large plant response rating (large crabgrass; 125 g ai/ha, preemergence): 90
Plant response rating, Crabgrass, Large (large crabgrass; Preemergence, 62 g ai/ha): 90
Plant response rating, Crabgrass, Large (large crabgrass; Preemergence, 31 g ai/ha): 70
Plant response rating, Quackgrass (quackgrass; 16 g ai/ha, preemergence): 20
Quackgrass plant response rating (quackgrass; 125 g ai/ha, preemergence): 95
Plant response rating, Quackgrass (quackgrass; Preemergence, 62 g ai/ha): 80
Plant response rating, Quackgrass (quackgrass; Preemergence, 31 g ai/ha): 65
Plant response rating, Surinam Grass (Surinam grass; 16 g ai/ha, preemergence): 60
Surinam Grass plant response rating (Surinam grass; 125 g ai/ha, preemergence): 100
Plant response rating, Surinam Grass (Surinam grass; Preemergence, 62 g ai/ha): 100
Plant response rating, Surinam Grass (Surinam grass; Preemergence, 31 g ai/ha): 100
Plant response rating, Guineagrass (guineagrass; 16 g ai/ha, preemergence): 50
Guineagrass plant response rating (guineagrass; 125 g ai/ha, preemergence): 100
Plant response rating, Guineagrass (guineagrass; Preemergence, 62 g ai/ha): 98
Plant response rating, Guineagrass (guineagrass; Preemergence, 31 g ai/ha): 98
Plant response rating, Black Mustard (mustard; 16 g ai/ha, preemergence): 40
Black Mustard plant response rating (mustard; 125 g ai/ha, preemergence): 60
Plant response rating, Black Mustard (mustard; Preemergence, 62 g ai/ha): 40
Plant response rating, Black Mustard (mustard; Preemergence, 31 g ai/ha): 40
Plant response rating, Dallisgrass (dallisgrass; 16 g ai/ha, preemergence): 15
Dallisgrass plant response rating (dallisgrass; 125 g ai/ha, preemergence): 98
Plant response rating, Dallisgrass (dallisgrass; Preemergence, 62 g ai/ha): 85
Plant response rating, Dallisgrass (dallisgrass; Preemergence, 31 g ai/ha): 75
Plant response rating, Ryegrass, Italian (Italian ryegrass; 16 g ai/ha, preemergence): 65
Ryegrass, Italian plant response rating (Italian ryegrass; 125 g ai/ha, preemergence): 100
Plant response rating, Ryegrass, Italian (Italian ryegrass; Preemergence, 62 g ai/ha): 100
Plant response rating, Ryegrass, Italian (Italian ryegrass; Preemergence, 31 g ai/ha): 65
Plant response rating, Goosegrass (goosegrass; 16 g ai/ha, preemergence): 35
Goosegrass plant response rating (goosegrass; 125 g ai/ha, preemergence): 100
Plant response rating, Goosegrass (goosegrass; Preemergence, 62 g ai/ha): 80
Plant response rating, Goosegrass (goosegrass; Preemergence, 31 g ai/ha): 65
